Laboratory results as given in US20050070596A1, “Methods for treatment of inflammatory diseases using CT-3 or analogs thereof” (priority 2003, published 2005).

Experiments:
TPA-induced erythema = details: applied topically; cited from earlier work
CB2 = CB2 (Homo sapiens, UniProt P34972); details: cited from earlier work
[1] = in vivo; cited from earlier work
[2] = system: mouse peritoneal macrophages activated by LPS and IFNγ; details: cited from earlier work
PBQ-induced writhing = details: given orally at doses up to 10 mg/kg; cited from earlier work
human leukocytes = details: cited from earlier work; for IFNγ synthesis: high concentrations (5-24µg/ml); for IFNγ production: low concentrations
Legionella = details: mouse, in vivo; cited from earlier work
[3] = system: mRNA of IL-1, IL-6 and TNFα; details: BALB/C mice injected with cannabidiol; cited from earlier work
[4] = system: mouse experimental model of multiple sclerosis; assay: inhibition of spasticity in a mouse experimental model of multiple sclerosis; format: in vivo; details: for spasticity (limb stiffness assessed by the force required to bend the limb): ***P<0.001 compared to baseline
Description: FIG. 7 illustrates cannabinoid-mediated inhibition of spasticity in a mouse experimental model of multiple sclerosis^35. Compounds were injected intravenously (i.v.) and the level of THC (1 mg/kg i.v.) was matched to the THC content in a cannabis extract (obtained under UK Home Office Licence). […] Nabilone (1 mg/kg i.v.) a synthetic analogue of THC (generously supplied by Cambridge Biomedicals, Cesamet) could inhibit spasticity to maximal levels (˜45-50% inhibition). Mean change compared to baseline (n=10/group)

[5] = system: levadopa-induced dyskinesia in Parkinson's disease; details: in vivo; cited from earlier work
people with chronic pain = details: oral; chronic pain (n=60), those with MS; cited from earlier work
[6] = system: tics in Tourette's syndrome; details: oral; cited from earlier work
CB1 receptors = CB1 receptors (Homo sapiens, UniProt P21554); details: cited from earlier work
Chain of CB1 receptors (P21554 whole entry): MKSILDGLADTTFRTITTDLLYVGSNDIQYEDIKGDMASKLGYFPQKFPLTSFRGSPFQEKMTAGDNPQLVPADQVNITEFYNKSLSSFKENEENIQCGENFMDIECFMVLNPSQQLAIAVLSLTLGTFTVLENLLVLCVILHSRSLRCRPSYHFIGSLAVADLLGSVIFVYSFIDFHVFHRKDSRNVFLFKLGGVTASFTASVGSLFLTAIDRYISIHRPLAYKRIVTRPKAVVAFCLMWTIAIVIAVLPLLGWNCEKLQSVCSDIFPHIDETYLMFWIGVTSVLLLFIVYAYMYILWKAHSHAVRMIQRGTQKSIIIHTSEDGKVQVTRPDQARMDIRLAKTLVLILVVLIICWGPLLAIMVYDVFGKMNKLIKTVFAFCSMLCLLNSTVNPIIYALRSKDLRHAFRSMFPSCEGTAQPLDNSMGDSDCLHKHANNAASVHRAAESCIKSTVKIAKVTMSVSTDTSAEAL

head trauma = details: phase II; cited from earlier work
NMDA receptor = details: cited from earlier work
MS patients = details: within one month after initiation of treatment; cited from earlier work

Chain of CB2 (P34972 whole entry, species assumed): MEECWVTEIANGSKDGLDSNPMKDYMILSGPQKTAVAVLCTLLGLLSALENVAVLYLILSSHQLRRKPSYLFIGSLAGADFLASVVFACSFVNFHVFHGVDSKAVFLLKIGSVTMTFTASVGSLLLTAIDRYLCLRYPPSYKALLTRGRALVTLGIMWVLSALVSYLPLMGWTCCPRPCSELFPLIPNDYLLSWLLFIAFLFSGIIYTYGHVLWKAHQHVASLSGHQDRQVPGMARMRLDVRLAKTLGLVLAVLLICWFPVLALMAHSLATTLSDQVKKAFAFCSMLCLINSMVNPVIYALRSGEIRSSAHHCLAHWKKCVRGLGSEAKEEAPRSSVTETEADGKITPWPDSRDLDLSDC

In the case of C=C(C)[C@@H]1CCC(C)=C[C@H]1c1c(O)cc(CCCCC)cc1O [Cannabidiol], the TPA-induced erythema (TPA-induced erythema) is given as “reduce”, the “binding to CB2 receptor” value (CB2) is given as “does not bind” and the psychoactivity [1] is given as “no psychotropic”. The “nitric oxide (NO) production” value [2] was “inhibited”, the PBQ-induced writhing (PBQ-induced writhing) was “inhibited” and the IL-1 production (human leukocytes) was “decreased”. For the same molecule, the IL-2 secretion (human leukocytes) was “did not affect”, the TNFα production (human leukocytes) was “decreased” and the IFNγ synthesis (human leukocytes) was “completely blocked”. The IFNγ production (human leukocytes) was “increase”, the mortality (Legionella) was “not affected” and the “level of mRNA of IL-1, IL-6 and TNFα” value [3] was “did not show significant change”.

For CCCCCCC(C)(C)c1cc(O)c2c(c1)OC(C)(C)C1CCC(=O)CC21 (stereo not drawn) [Nabilone], the inhibition at 1 mg/kg ([4]; Mus musculus, iv, 1 mg/kg i.v., mean change compared to baseline, maximal levels) is given as 45 to 50%, the levadopa-induced dyskinesia [5] is given as “inhibit” and the “MS patients reporting some analgesic effect” value (people with chronic pain) is given as “six of 16”.

For CCCCCc1cc(O)c2c(c1)OC(C)(C)[C@@H]1CCC(C)=C[C@@H]21 [THC, delta 9 tetrahydrocannabinol], the “inhibition of spasticity” value ([4]; THC 1 mg/kg i.v.) is listed as “capacity to induce maximal inhibition of spasticity”, the tics [6] is listed as “can inhibit tics” and the “nitric oxide (NO) production” value [2] is listed as “inhibited”. For the same molecule, the IFNγ synthesis (human leukocytes) was “completely blocked” and the IFNγ production (human leukocytes) was “increase”.

For CCCCCCC(C)(C)c1cc(O)c2c(c1)OC(C)(C)[C@@H]1CC=C(C(=O)O)C[C@@H]21 [ajulemic acid], the “spasticity (limb stiffness assessed by the force required to bend the limb)” value [4] is given as “inhibits spasticity”, the “spasticity (limb stiffness assessed by the force required to bend the limb)” value ([4]; listed as Ajulemic acid) is given as “anti-spastic” and the cannabimimetic effects [1] is given as “dose not induce cannabimimetic effects”. The “direct stimulation of CB1 receptors” value (CB1 receptors) was “does not directly stimulate CB1 receptors to a significant extent”.

In the case of CCCCCCC(C)(C)c1cc(O)c2c(c1)OC(C)(C)[C@H]1CC=C(CO)C[C@H]21 [dexanabinol], the “efficacy in head trauma” value (head trauma) is given as “some efficacy” and the NMDA receptor activity (NMDA receptor) is given as “NMDA receptor antagonist”.

B1: IFN-.gamma.: cytokine administered in attempts to alleviate the symptoms of MS (protein, UniProt P01579 24-161, looked up)
Interferon gamma: QDPYVKEAENLKKYFNAGHSDVADNGTLFLGILKNWKEESDRKIMQSQIVSFYFKLFKNFKDDQSIQKSVETIKEDMNVKFFNSNKKKRDDFEKLTNYSVTDLNVQRKAIHELIQVMAELSPAAKTGKRKRSQMLFRG
For B1, the “patients with clinical exacerbation” value (MS patients) is given as 7 of 18.
